Results on two compounds are retold here after patent publication US9738675B2, “Water-soluble photochromic compound” (RIKKYO EDUCATIONAL CORPORATION, priority 2012, dated 2017).

Data set [1] in a line: Assessment of water-solubility. In kind it is physicochemical. Conditions: assessed similarly to Example 1. As for the experimental part:
The water solubility of a compound of formula (I-2) was assessed similarly to Example 1, to check that the compound is water soluble.

Data set [2] is described as follows: Photochromic property: absorption and fluorescence spectra in solution. In kind it is physicochemical. How it is done:
The spectrum of the open ring form is shown by dotted line 10. Irradiation with the UV light (313 nm) turned the solution purple, and a spectrum shown by solid line 20 was observed.
The water solubility of a compound of formula (I-2) was assessed similarly to Example 1, to check that the compound is water soluble. Specifically, the compound of (1-2) was dissolved in a small amount of methanol (0.2 mL), and distilled water (4 mL) was added to prepare a 95% aqueous solution, and an absorption spectrum of FIG. 2 (by Hitachi, using U-4100) was obtained as a result. The spectrum of the open ring form is shown by dotted line 10. Irradiation with a UV light (313 nm) turned the solution yellow, and a spectrum shown by solid line 20 was observed. In addition, the irradiation with the UV light made the compound fluorescent, and a spectrum of solid line 30 was obtained.
Curve 10 is a spectrum of the compound (open ring form) of formula (I-3), and the maximum absorption wave length was 254 nm. Then, an aqueous solution of the compound of formula (I-3) was irradiated with light of 254 nm to obtain a photostationary state (PSS), in which the ring closing reaction has ended. The spectrum at this state is shown as curve 20. The maximum absorption wavelength of the closed ring form was 595 nm.
About 0.5 mg of the given compound was dissolved in each of 0.5 mL of water/methanol (weight rate of 90/10) and 0.5 mL of only methanol to prepare a solution. For convenience, the former will be referred to as an aqueous solution, and the latter will be referred to as a methanol solution. Curve 10 is a spectrum of the compound of formula (I-4) (open ring form). In the methanol solution, the maximum absorption wavelength is 450 nm, and the molar absorption coefficient was 39000 M^−1 cm^−1. The absorption disappeared when irradiated with visible light, and the solution returned to a colorless state. Curve 20 is a spectrum of the closed ring form. […] Further, the fluorescence disappeared when the compound returned to the open ring form.
In the aqueous solution, the maximum absorption wavelength of the open ring form was 458 nm, and the molar absorption coefficient was 36000 M^−1 cm^−1. The absorption disappeared when irradiated with visible light, and the solution returned to a colorless state. […] Further, the fluorescence disappeared when the compound returned to the open ring form.

[3] abbreviates: 95% aqueous solution, UV 313 nm.

On to `Cc1sc(C(=O)O[C@@H]2[C@H](O)[C@@H](O)[C@H](O)[C@@H](O)[C@@H]2O)cc1C1=C(c2cc(C(=O)O[C@@H]3[C@H](O)[C@@H](O)[C@H](O)[C@@H](O)[C@@H]3O)sc2C)C(F)(F)C(F)(F)C1(F)F` [I-3], for which the water solubility entry in data set [1] is on record as “water soluble”. Besides, the “maximum absorption wave length, open ring form” value in data set [2] (aqueous solution) is on record as 254 nm. Further, in data set [2] (aqueous solution, photostationary state after 254 nm light), the “maximum absorption wavelength, closed ring form” value was 595 nm. The photochromism result in data set [2] (aqueous solution, visible light longer than 600 nm) is on record as “reversible photochromism”.

For `CC1=C(C2=C(C3=C(C)S(=O)(=O)c4cc(CO[C@@H]5O[C@H](CO)[C@@H](O)[C@H](O)[C@H]5O)ccc43)C(F)(F)C(F)(F)C2(F)F)c2ccc(CO[C@@H]3O[C@H](CO)[C@@H](O)[C@H](O)[C@H]3O)cc2S1(=O)=O` [I-2], the water solubility result in data set [1] is on record as “water soluble”. In data set [2] (setting [3]), the “colour of solution after irradiation with UV light” value is on record as “yellow” and the “fluorescence after irradiation with UV light” value is “fluorescent”.
